Experimental data published in ChEMBL document CHEMBL2311338, “On the preparation of indoxyl red from indican and some new characteristics” (Bioorg Med Chem Lett, 2013).
Calls of active or inactive are those of the source. The rule behind the calls is not given here.

Columns and labels:
SNU-638 = assay: Antiproliferative activity against human SNU638 cells; type: functional, cell-based
MCF7 = assay: Antiproliferative activity against human MCF7 cells; type: functional, cell-based
[1] = Antiproliferative activity against human lung cancer cells; type: functional, cell-based; conditions: Cancer cell lines
[2] = Antiproliferative activity against human leukemia cells; type: functional, cell-based; conditions: Leukemia cell
Mus musculus [3] = species on record: Mus musculus; assay: Anticancer activity against 1 x 10^5 cells mouse NSF202 cells assessed as cell growth inhibition at 1.02 uM measured after 2 days by trypan blue exclusion method; type: functional, cell-based
Mus musculus [4] = species on record: Mus musculus; assay: Anticancer activity against 2 x 10^5 cells mouse NSF202 cells assessed as cell growth inhibition at 1.02 uM measured after 2 days by trypan blue exclusion method; type: functional, cell-based
[5] = Anticancer activity against 1 x 10^5 cells mouse NSF202 cells assessed as decrease in viable cells at 1 ug/ml measured after 2 days by trypan blue exclusion method; type: functional

| IC50 (SNU-638) [µM] | IC50 (MCF7) [µM] | Compound | IC50 [1] [µM] | IC50 [2] [µM] | inhibition (Mus musculus [3]) | inhibition (Mus musculus [4]) | Activity [5] [%] |
| --- | --- | --- | --- | --- | --- | --- | --- |
| 1.2 | 1.4 | O=Nc1c(-c2c(O)[nH]c3ccc([N+](=O)[O-])cc23)[nH]c2ccccc12 | 5.4 | 9.2 |  |  |  |
|  |  | O=C1C(c2c[nH]c3ccccc23)=Nc2ccccc21 [INDOXYL RED] |  |  | Active | Active | 40 |
